Data set [1] has as its system isolated guinea-pig ventricular myocytes. The data set is described as follows: Protection of isolated ventricular myocytes from hypercontracture obtained by incubation under N2 atmosphere. Type of data set: cell-based. Conditions: 30 nM, with reference to vehicle-treated cells. The method, then: (§1) Isolated guinea-pig ventricular myocytes were obtained following the method described by Powell et al. (J. Physiol., 1980, 102: 131) as modified by Levi et al. (J. Physiol., 1990, 425:9P). Cell hypercontracture and death was obtained either by incubation under N2 atmosphere or by incubation with veratridine which induced important changes in the ionic homeostase of cardiomyocytes (Hiroko Hashizume et al., European Journal of Pharmacology, […], 271: 1-8). Results expressed as percentage of cells protected from hypercontracture i.e. maintaining its rod-shaped morphology with reference to vehicle-treated cells are given in the tables I and II hereafter.

Data set [2] has the same test system. The data set is described as follows: Protection of isolated ventricular myocytes from hypercontracture obtained by incubation with veratridine. The data set is classed as cell-based. The following applies: 1 μM, with reference to vehicle-treated cells. As for the experimental part: as §1
Data set [3] concerns anaesthetised rats. The data set can be described thus: In vivo cardioprotective effect: coronary occlusion and reperfusion in anaesthetised rats. Also on record: species or system rat. Conditions: 2 × 20 mg/kg orally (one day and one hour before the experiment). An excerpt: Cardiac death and arrhythmias were induced by the coronary occlusion and reperfusion method in anaesthetised rats according to the method of Seyle et al. (Angiology, 1960, 11, 398-407) modified by Krzeminski T. (“proceedings of 7th Freiburg Focus of Biomeasurement”, Strasbourg, 16-19 September 1991) Cardiovascular and Respiratory in vivo Studies, Biomesstechnik, Verlag March GmbH, Germany) and according to the LAMBETH conventions (Walker M. J. A. et al., Cardiovasc Re., […], 22, 447-455). The products have been administered orally (one day and one hour before the experiment). They are given in percentage of protection against the mortality and the arrhythmias (ventricular fibrillations).

Data set [4] relates to guinea-pig ventricular cardiomyocytes action potential. The data set is described as follows: Action potential of ventricular cardiomyocytes in the presence of veratridine (patch clamp). The data set is classed as cell-based. As for the experimental part:
(§2) In order to confirm the cardioprotection, the activity of one of the most interesting compound (example 31 according to the invention) was tested on guinea-pig ventricular cardiomyocytes action potential (AP) in the presence of veratridine or in anoxic condition. The action potential (AP) time courses of guinea-pig ventricular cardiomyocytes treated with veratridine or made anoxic by incubation under N2 atmosphere were measured (patch clamp technique) in absence and presence of the compound of example 31 according to the invention. […] In anoxic conditions, there is a shortening of cardiomyocyte action potential duration related mainly with an activation of K+-ATP dependent current.
For orientation: Patch clamp records ionic current or voltage across a cell membrane.

Data set [5] has the same test system. The data set can be described thus: Action potential of ventricular cardiomyocytes in anoxic condition under N2 atmosphere (patch clamp). The data set is classed as cell-based. Conditions: 100-300 nM. As for the experimental part: as §2

The structures appear in SMILES notation.

On to `COC(=O)c1c(C)nc(C)c(C(=O)OC)c1-c1ccccc1[N+](=O)[O-]` [Example 25, 2,6-Dimethyl-4-(2-nitrophenyl) pyridine-3,5-dicarboxylic acid dimethyl ester], for which, in data set [1], the “% Protection (cells protected from hypercontracture)” value is listed as 50%. The “% Protection (cells protected from hypercontracture)” value in data set [2] worked out at 34%. Also, in data set [3], the “% PROTECTION AGAINST DEATH” value is reported as 100% and the “% PROTECTION AGAINST VENTRICULAR FIBRILLATIONS” value came to 50%.

In turn, `COC(=O)c1c(C)nc(C)c(C(=O)OCC2CCCO2)c1-c1cccc(NC(C)=O)c1.Cl` (centres unmarked) displayed a melting point of 196 to 198 °C.

As to `COC(=O)c1c(C)nc(C)c(C(=O)OCC2CCCO2)c1-c1ccccc1[N+](=O)[O-]` (centres unmarked) [Example 12, 2,6-Dimethyl-4-(2-nitrophenyl) pyridine-3,5-dicarboxylic acid 3-methyl ester 5-(tetrahydrofuran-2-ylmethyl) ester], in data set [1], the “% Protection (cells protected from hypercontracture)” value is given as 80%. In data set [2], the “% Protection (cells protected from hypercontracture)” value was determined as 57%. In data set [3], the “% PROTECTION AGAINST DEATH” value is 100% and the “% PROTECTION AGAINST VENTRICULAR FIBRILLATIONS” value is listed as 100%.

Regarding `COC(=O)c1c(C)nc(C)c(C(=O)OCC(C)C)c1-c1ccccc1[N+](=O)[O-]` [Example 23, 2,6-Dimethyl-4-(2-nitrophenyl)-pyridine-3,5-dicarboxylic acid 3-methyl ester 5-isobutyl ester], the “% Protection (cells protected from hypercontracture)” value in data set [1] is listed as 50%. Also, in data set [2], the “% Protection (cells protected from hypercontracture)” value was found to be 41.3%. In data set [3], the “% PROTECTION AGAINST DEATH” value amounted to 100% and the “% PROTECTION AGAINST VENTRICULAR FIBRILLATIONS” value came out at 75%.

`COC(=O)c1c(C)nc(C)c(C(=O)OCC2CCC(=O)O2)c1-c1ccccc1[N+](=O)[O-]` (centres unmarked) [Example 15, 2,6-Dimethyl-4-(2-nitrophenyl) pyridine-3,5-dicarboxylic acid 3-methyl ester 5-(5-oxotetrahydrofuran-2-ylmethyl)ester] returned a melting point of 132 to 134 °C.

Turning to `COCCOC(=O)c1c(C)nc(C)c(C(=O)OC(C)C)c1-c1cccc([N+](=O)[O-])c1` [Example 22, 2,6-Dimethyl-4-(3-nitrophenyl)-pyridine-3,5-dicarboxylic acid 3-isopropyl ester 5-(2-methoxyethyl) ester], the “% Protection (cells protected from hypercontracture)” value in data set [1] was 63%. The “% Protection (cells protected from hypercontracture)” value in data set [2] is 37.5%. Moreover, in data set [3], the “% PROTECTION AGAINST DEATH” value was 100% and the “% PROTECTION AGAINST VENTRICULAR FIBRILLATIONS” value is reported as 50%.

On to `COC(=O)c1c(C)nc(C)c(C(=O)OCC2CCCO2)c1-c1cccc(F)c1` (centres unmarked) [Example 3, 2,6-Dimethyl-4-(3-fluorophenyl) pyridine-3,5-dicarboxylic acid 3-methyl ester 5-(tetrahydrofuran-2-ylmethyl) ester], for which the melting point is 66 to 68 °C.

Regarding `COC(=O)c1c(C)nc(C)c(C(=O)O)c1-c1ccccc1[N+](=O)[O-]` [Example 31, 2,6-Dimethyl-4-(2-nitrophenyl) pyridine-3,5-dicarboxylic acid 3-methyl ester], the “% Protection (cells protected from hypercontracture)” value in data set [1] is 58%. Further, the “% Protection (cells protected from hypercontracture)” value in data set [2] is reported as 64%. In addition, the “Prolongation of cardiomyocyte action potential duration induced by veratridine” value in data set [4] (100-300 nM, veratridine) was “prevents”. The “Influence on the normal action potential” value in data set [4] (normal action potential) is “does not influence significantly”. Also, the “Shortening of cardiomyocyte action potential duration in anoxic conditions (K+-ATP dependent current)” value in data set [5] was “inhibited dose-dependently and strongly”. In addition, in data set [3], the “% PROTECTION AGAINST DEATH” value amounted to 85.7% and the “% PROTECTION AGAINST VENTRICULAR FIBRILLATIONS” value is reported as 73.4%.

As to `Cc1nc(C)c(C(=O)OCC2CCCO2)c(-c2cccc([N+](=O)[O-])c2)c1C(=O)OCC1CCCO1.Cl` (centres unmarked), the melting point fell in the range of 75 to 77 °C.

Consider `CCOC(=O)c1c(C)nc(C)c(C(=O)OC)c1-c1cccc([N+](=O)[O-])c1` [Example 24, 2,6-Dimethyl-4-(3-nitrophenyl)pyridine-3,5-dicarboxylic acid 3-ethyl 5-methyl ester], for which the “% Protection (cells protected from hypercontracture)” value is on record as 60% in data set [1] and 37.5% in data set [2]. Also, in data set [3], the “% PROTECTION AGAINST DEATH” value was determined as 100%. Besides, the “% PROTECTION AGAINST VENTRICULAR FIBRILLATIONS” value in data set [3] is 37.5%.

The molecule `COC(=O)c1c(C)nc(C)c(C(=O)OCC2CCCO2)c1-c1cccc(O)c1.Cl` (centres unmarked) had a melting point of 95 to 97 °C.

A word on the melting point: it is the temperature, or range, at which the solid turns liquid.

The values are drawn from patent US6482841B1, “Pyridyl compounds and pharmaceutical compositions containing them” (Cermol S.A., priority 1997, dated 2002).
